Source: patent publication US20250109134A1 (Ascentage Pharma (Suzhou) Co., Ltd., priority 2022, published 2025)
Counter-ions that a name gives are not always drawn.

Key:
Assay type in all cases: physicochemical
[1] = Stability study, content and related substances (TRS, total impurity content) by HPLC; settings: for chemical stability (HPLC, TRS total impurity content): open, 60° C., RT/92.5% RH, RT/75% RH, 40° C./75% RH, up to 30 days
Description: In the present invention, the HPLC (high performance liquid chromatography) test parameters are set as follows:
Then, the sample flasks were opened to air (sealed with aluminum foil punctured with small holes) and placed in constant temperature and humidity cabinets at high temperature (60° C.), at room temperature and high humidity ([…]), at RT/75% RH, and at 40° C./75% RH for 30 days, respectively, […]

[2] = Stability study, solid form by XRPD after open storage at high temperature / high humidity; settings: open, 60° C.; RT/92.5% RH; RT/75% RH; 40° C./75% RH; 30 days
Description: In the present invention, the XRPD test parameters are set as follows:
Then, the sample flasks were opened to air (sealed with aluminum foil punctured with small holes) and placed in constant temperature and humidity cabinets at high temperature (60° C.), at room temperature and high humidity (RT/92.5% RH), at RT/75% RH, and at 40° C./75% RH for 30 days, respectively, and samples were taken at days 5, 10 and 30 for XRPD and HPLC detection.

[3] = Dynamic vapor sorption (DVS) hygroscopicity test; settings: for hygroscopic weight gain (DVS): 25° C. and 80% RH; for hygroscopicity (DVS), in words: 80% RH; for crystalline form before and after hygroscopic test (XRPD after DVS): XRPD of sample after DVS
From the text: In the present invention, the DVS test parameters are set as follows: […]

[4] = Polymorph screening (suspension, anti-solvent, gas-liquid diffusion, slow volatilization methods), resulting form by XRPD; settings: for Crystalline form: suspension method
Description: The sample was quickly centrifuged (6000 rpm, 5 min) to remove a supernatant. The resulting precipitate was subjected to vacuum drying (40° C., −0.1 MPa) for 20 h, followed by physical characterization.
The resulting precipitate was subjected to vacuum drying at 40° C. for 20 h, followed by physical characterization.
No clear solution was obtained, and the sample was still undissolved after 1 mL of solvent was added. Then, 500 μL of poor solvent (acetone, ACN, MeOH, EtOAc, THE, or […]) was added, and 40 mg of the sample was added to perform an experiment by a suspension method. All suspension samples were stirred at 50° C. for 2 days and quickly centrifuged (6000 rpm, 5 min) to remove a supernatant. The resulting solid was subjected to vacuum drying at 40° C. for 20 h, followed by physical characterization.
The compound of formula I was subjected to polymorph screening with DCM as a good solvent and with MeOH, EtOH, THE, or EA as an anti-solvent, and was dissolved in both DCM and MeOH systems. The suspension sample was stirred for 2 days and quickly centrifuged to remove a supernatant. The resulting precipitate was subjected to vacuum drying at 25° C. for 20 h, followed by physical characterization.
The resulting precipitate was subjected to vacuum drying at room temperature for 20 h, followed by physical characterization.
The resulting precipitate was subjected to vacuum drying for 20 h.
Sonication was performed for 1 min to obtain a clear solution, which was filtered through a 0.22 μm filter membrane and aliquoted into seven 8 mL glass flasks. An anti-solvent was added until precipitation occurred. The sample was stirred at room temperature for 1 day and quickly centrifuged. The resulting solid precipitate was subjected to vacuum drying.
Then, an anti-solvent was added until precipitation occurred, and the mixture was stirred at room temperature overnight and quickly centrifuged (6000 rpm, 6 min) to remove a supernatant. The resulting precipitate was subjected to vacuum drying for 20 h.
Then, the solution was added to a 20 mL glass flask containing 2 mL of an anti-solvent (shown in the following table), and the flask was tightly capped at room temperature and placed in a fume hood for diffusion. When precipitation occurred, the flask was taken out, and the resulting precipitate was subjected to vacuum drying for 20 h.
The flask placed in a fume hood at room temperature for diffusion. When precipitation occurred, the flask was taken out, and the resulting precipitate was subjected to vacuum drying for 20 h.
The mixture was stirred at 50° C. or room temperature for 6 days and quickly centrifuged (6000 rpm, […]) to remove a supernatant. The resulting precipitate was subjected to vacuum drying for 20 h.

[5] = XRPD characterization (crystallinity), summary evaluation; settings: summary of forms
From the text: In the present invention, the XRPD test parameters are set as follows: […]

[6] = solvent ACN, suspension, 2 days, from crystalline form B
[7] = solvent ACN—H2O = 1-1, suspension, 2 days, from crystalline form B
[8] = solvent Acetone-H2O = 1-2, suspension, 2 days, from crystalline form B
[9] = solvent Acetone, suspension, 2 days, from crystalline form B
[10] = solvent EtOH, suspension, 2 days, from crystalline form B
[11] = solvent EtOH—H2O 1-1, suspension, 2 days, from crystalline form B
[12] = solvent EtOH—H2O = 3-1, suspension, 2 days, from crystalline form B
[13] = solvent H2O, suspension, 2 days, from crystalline form B
[14] = solvent MTBE, suspension, 2 days, from crystalline form B
[15] = solvent MeOH, suspension, 2 days, from crystalline form B
[16] = solvent MeOH—H2O 1-1, suspension, 2 days, from crystalline form B
[17] = solvent THF, suspension, 2 days, from crystalline form B
[18] = solvent 1,4-Dixoane, suspension, 6 days

CC(C)N1Cc2cc(C(F)(F)F)ncc2-c2cnc(NCc3c(F)ccc4c3CCO4)n3cnc(c23)C1=O.Cl [Crystalline form A of hydrochloride salt]
TRS(%) ([1]; 40° C./75RH %-5 d, open storage): 0.30%
TRS(%) ([1]; 40° C./75RH %- 10 d, open storage): 0.28%
TRS(%) ([1]; 40° C./75RH %- 30 d, open storage): 0.28%
TRS(%) ([1]; 60° C.-5 d, open storage): 0.28%
TRS(%) ([1]; 60° C.-10 d, open storage): 0.34%
TRS(%) ([1]; 60° C.-30 d, open storage): 0.27%
TRS(%) ([1]; Initial, TRS = total impurity content, HPLC): 0.31%
TRS(%) ([1]; RT/75% RH 7 d, open storage): 0.26%
TRS(%) ([1]; RT/75% RH 10 d, open storage): 0.26%
TRS(%) ([1]; RT/75% RH 30 d, open storage): 0.37%
TRS(%) ([1]; RT/90RH %-5 d, open storage): 0.28%
TRS(%) ([1]; RT/90RH %-10 d, open storage): 0.26%
TRS(%) ([1]; RT/90RH %-30 d, open storage): 0.27%

CC(C)N1Cc2cc(C(F)(F)F)ncc2-c2cnc(NCc3c(F)ccc4c3CCO4)n3cnc(c23)C1=O [crystalline form A of the compound of formula I]
change in the crystalline form after storage (XRPD), physical stability [2]: no change in the crystalline form
hygroscopic weight gain (DVS) [3]: 0.44%
hygroscopicity (DVS), in words [3]: slight hygroscopicity
chemical stability (HPLC, TRS total impurity content) [1]: good chemical stability

CC(C)N1Cc2cc(C(F)(F)F)ncc2-c2cnc(NCc3c(F)ccc4c3CCO4)n3cnc(c23)C1=O [crystalline form B of the compound of formula I]
change in the crystalline form after storage (XRPD), physical stability [2]: no change in the crystalline form
hygroscopic weight gain (DVS) [3]: 0.84%
hygroscopicity (DVS), in words [3]: slight hygroscopicity
chemical stability (HPLC, TRS total impurity content) [1]: good chemical stability

CC(C)N1Cc2cc(C(F)(F)F)ncc2-c2cnc(NCc3c(F)ccc4c3CCO4)n3cnc(c23)C1=O [crystalline form A of the methanesulfonate salt of the compo]
change in the crystalline form after storage (XRPD), physical stability [2]: no change in the crystalline form
hygroscopic weight gain (DVS) [3]: 0.84%
hygroscopicity (DVS), in words [3]: slight hygroscopicity
crystalline form before and after hygroscopic test (XRPD after DVS) [3]: did not change

CC(C)N1Cc2cc(C(F)(F)F)ncc2-c2cnc(NCc3c(F)ccc4c3CCO4)n3cnc(c23)C1=O [crystalline form A of the hydrochloride salt of the compound]
change in the crystalline form after storage (XRPD), physical stability [2]: no change in the crystalline form
hygroscopic weight gain (DVS) [3]: 0.31%
hygroscopicity (DVS), in words [3]: slight hygroscopicity
crystalline form before and after hygroscopic test (XRPD after DVS) [3]: did not change
chemical stability (HPLC, TRS total impurity content) [1]: good chemical stability

CC(C)N1Cc2cc(C(F)(F)F)ncc2-c2cnc(NCc3c(F)ccc4c3CCO4)n3cnc(c23)C1=O [compound of formula I]
Crystalline form ([4]; solvent DCM/EA = 1-1, stirred 2 days): Crystalline form A
Crystalline form ([4]; solvent DCM/EtOH = 2-1, stirred 2 days): Crystalline form A
Crystalline form ([4]; solvent DCM/THF = 1-1, stirred 2 days): Crystalline form A
Crystalline form ([4]; solvent DCM, stirred 2 days): Crystalline form A
Crystalline form ([4]; solvent DMF/H2O = 1/3, 50° C., 2 days): Crystalline form B + DMF solvate
Crystalline form ([4]; solvent DMF, 50° C., 2 days): Crystalline form B + DMF solvate
Crystalline form ([4]; solvent NMP/ACN = 1/3, 50° C., 2 days): N-methyl-2-pyrrolidone solvate
Crystalline form ([4]; solvent NMP/EtOAc = 1/3, 50° C., 2 days): N-methyl-2-pyrrolidone solvate
Crystalline form ([4]; solvent NMP/H2O = 1/3, 50° C., 2 days): Crystalline forms A + B
Crystalline form ([4]; solvent NMP/MeOH = 1/3, 50° C., 2 days): N-methyl-2-pyrrolidone solvate
Crystalline form ([4]; solvent NMP/THF = 1/3, 50° C., 2 days): N-methyl-2-pyrrolidone solvate
Crystalline form ([4]; solvent NMP/acetone = 1/3, 50° C., 2 days): N-methyl-2-pyrrolidone solvate
Crystalline form ([4]; solvent NMP, 50° C., 2 days): N-methyl-2-pyrrolidone solvate

CC(C)N1Cc2cc(C(F)(F)F)ncc2-c2cnc(NCc3c(F)ccc4c3CCO4)n3cnc(c23)C1=O [crystalline form B]
Crystalline form results 25° C. [4, 6]: Crystalline form A
Crystalline form results 50° C. [4, 6]: Crystalline form A
Crystalline form results 25° C. [4, 7]: Crystalline form A
Crystalline form results 50° C. [4, 7]: Crystalline form A
Crystalline form results 25° C. [4, 8]: Crystalline form B
Crystalline form results 50° C. [4, 8]: Crystalline form B
Crystalline form results 25° C. [4, 9]: Crystalline form B
Crystalline form results 50° C. [4, 9]: Crystalline form B
Crystalline form results 50° C. ([4]; solvent EtOAc, suspension, 2 days, from crystalline form B): Crystalline form B
Crystalline form results 25° C. [4, 10]: Crystalline form B
Crystalline form results 50° C. [4, 10]: Crystalline form A
Crystalline form results 25° C. [4, 11]: Crystalline form B
Crystalline form results 50° C. [4, 11]: Crystalline form A
Crystalline form results 25° C. [4, 12]: Crystalline form B
Crystalline form results 50° C. [4, 12]: Crystalline form A
Crystalline form results 25° C. [4, 13]: Crystalline form B
Crystalline form results 50° C. [4, 13]: Crystalline form B
Crystalline form results 25° C. ([4]; solvent Heptane, suspension, 2 days, from crystalline form B): Crystalline form B
Crystalline form results 25° C. [4, 14]: Crystalline form E
Crystalline form results 50° C. [4, 14]: Crystalline form G
Crystalline form results 25° C. [4, 15]: Crystalline form A
Crystalline form results 50° C. [4, 15]: Crystalline form A
Crystalline form results 25° C. [4, 16]: Crystalline form F
Crystalline form results 50° C. [4, 16]: Crystalline form A
Crystalline form results 25° C. ([4]; solvent MeOH—H2O = 3-1, suspension, 2 days, from crystalline form B): Crystalline form A
Crystalline form results 25° C. [4, 17]: Crystalline form B
Crystalline form results 50° C. [4, 17]: Crystalline form B
Crystalline form results 25° C. ([4]; solvent Toluene, suspension, 2 days, from crystalline form B): Toluene solvate

CC(C)N1Cc2cc(C(F)(F)F)ncc2-c2cnc(NCc3c(F)ccc4c3CCO4)n3cnc(c23)C1=O
Crystalline form results 50° C. [4, 18]: 1,4-dioxane solvate
Crystalline form results Room temperature [4, 18]: 1,4-dioxane solvate

CC(C)N1Cc2cc(C(F)(F)F)ncc2-c2cnc(NCc3c(F)ccc4c3CCO4)n3cnc(c23)C1=O [crystalline form A of the sulfate salt of the compound of fo]
change in the crystalline form after storage (XRPD), physical stability [2]: no change in the crystalline form
hygroscopic weight gain (DVS) [3]: 1.43%
hygroscopicity (DVS), in words [3]: slight hygroscopicity
crystalline form before and after hygroscopic test (XRPD after DVS) [3]: did not change

CC(C)N1Cc2cc(C(F)(F)F)ncc2-c2cnc(NCc3c(F)ccc4c3CCO4)n3cnc(c23)C1=O.O=S(=O)(O)O [Sulfate Crystalline form A]
Evaluation results: hygroscopicity ([3]; summary of forms): Slight hygroscopicity

CC(C)N1Cc2cc(C(F)(F)F)ncc2-c2cnc(NCc3c(F)ccc4c3CCO4)n3cnc(c23)C1=O.Cc1ccc(S(=O)(=O)O)cc1 [p-toluenesulfonate Crystalline form A]
Evaluation results: crystallinity [5]: High crystallinity
